Source: ChEMBL document CHEMBL1201862, “PubChem BioAssay data set” (2004)
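Values below derive from 48-hour exposures of cells grown in 96-well plates, with endpoints linearly interpolated between the two concentrations bracketing the appropriate inhibition level. GI50 is the concentration that inhibits growth by half.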 Activity calls are given as the source filed them. Rule as the data show it: active = GI50 up to about 1.1 µM and inactive = higher.

Assays:
Assay in all cases: NCI-60 cell line screen, 48 h
HOP-18 = test system: HOP-18
M19-MEL = test system: M19-MEL
DMS-273 = test system: DMS-273
SNB-78 = test system: SNB-78
DLD-1 = test system: DLD-1
RXF 631 = test system: RXF 631
XF498 = test system: XF498
KM-20L2 = test system: KM-20L2

Measured: GI50

Cc1ccccc1-n1c(N)c(-c2nc3ccccc3[nH]2)sc1=S
inactive: HOP-18 30.2 µM | M19-MEL 23.3 µM | DMS-273 18.9 µM | SNB-78 32.4 µM | DLD-1 27.3 µM | RXF 631 24.9 µM

CN1CCCCC(C(O)(c2ccccc2)c2ccccc2)C1=O (stereo not given)
inactive: HOP-18 > 100 µM | M19-MEL > 100 µM | XF498 > 100 µM | KM-20L2 > 100 µM | DMS-273 44.1 µM | SNB-78 > 100 µM | DLD-1 39.4 µM | RXF 631 42.4 µM

O=C(NCCCCNc1cccccc1=O)OCc1ccccc1
inactive: HOP-18 > 100 µM | M19-MEL > 100 µM | KM-20L2 > 100 µM | DMS-273 > 100 µM | SNB-78 > 100 µM | DLD-1 > 100 µM | RXF 631 > 100 µM

COC(=O)C1CC2c3c(c4ccccc4n3C)CC(C1=O)N2C (stereo not given)
inactive: HOP-18 40 µM | M19-MEL 49.3 µM | KM-20L2 39.8 µM | DMS-273 20.2 µM | SNB-78 47 µM | DLD-1 40.9 µM | RXF 631 63.4 µM

CC(C)(C)C(=C[S+]([O-])/N=C/c1ccccc1)C(C)(C)C (stereo not given)
inactive: M19-MEL 36.1 µM | XF498 23 µM | KM-20L2 52.8 µM | DMS-273 32.3 µM | SNB-78 12.2 µM | DLD-1 31 µM | RXF 631 38.6 µM

COc1cc(C(=O)C(CO)Oc2ccccc2OC)ccc1O (stereo not given)
inactive: HOP-18 > 100 µM | M19-MEL > 100 µM | KM-20L2 > 100 µM | DMS-273 > 100 µM | SNB-78 > 100 µM | DLD-1 > 100 µM | RXF 631 > 100 µM

N=C(N)NS(=O)(=O)c1ccc(Nc2c3ccccc3nc3c(C(=O)Nc4ccc(S(N)(=O)=O)cc4)ccc(Cl)c23)cc1
inactive: HOP-18 > 100 µM | M19-MEL > 100 µM | XF498 > 100 µM | KM-20L2 > 100 µM | DMS-273 > 100 µM | SNB-78 65.5 µM | DLD-1 > 100 µM | RXF 631 > 100 µM
